In patent US10709707B2, “Methods of treating ocular conditions” (Oyster Point Pharma, Inc., priority 2016, dated 2020):
“And” between values parts separate entries of the source, which are not always exact repeats. Equal values may be shown once. “Also recorded” adds a separate entry of the source. Read-outs that look alike come from different tables or passages of the source.

What was measured:
[1] = 2-week and 13-week repeated dose TK studies, rat; assay type: in vivo
Experimental: In 2-week and 13-week repeated dose TK studies in rat, animals were dosed orally at 30, 100 or 200 mg/kg/day (2-week study) or at 30, 100 or 300 mg/kg/day (13-week study). […] In the 2-week study, there was a 1.2 to 2.2-fold increase in exposure from Day 1 to 15. In the 13-week study, there was a general increase from Day 1 to 29 and roughly equivalent exposure from Day 29 to 91.

α4β2 (rat), a4b2*/a6b2* = assay: Receptor function, [3H]-dopamine release from rat striatal synaptosomes; assay type: biochemical
muscle receptor (α1β1δγ) [2] = molecular target: T1, muscle receptor (α1β1δγ) (Homo sapiens, UniProt P02708+P07510+Q07001); assay: Receptor binding muscle receptor, TE-671 membranes
T1 construct: endogenous in cells; host or cells: TE671 (TE-671) cells / membranes (per the earlier reading)
T1 sequence (P11230 24-501): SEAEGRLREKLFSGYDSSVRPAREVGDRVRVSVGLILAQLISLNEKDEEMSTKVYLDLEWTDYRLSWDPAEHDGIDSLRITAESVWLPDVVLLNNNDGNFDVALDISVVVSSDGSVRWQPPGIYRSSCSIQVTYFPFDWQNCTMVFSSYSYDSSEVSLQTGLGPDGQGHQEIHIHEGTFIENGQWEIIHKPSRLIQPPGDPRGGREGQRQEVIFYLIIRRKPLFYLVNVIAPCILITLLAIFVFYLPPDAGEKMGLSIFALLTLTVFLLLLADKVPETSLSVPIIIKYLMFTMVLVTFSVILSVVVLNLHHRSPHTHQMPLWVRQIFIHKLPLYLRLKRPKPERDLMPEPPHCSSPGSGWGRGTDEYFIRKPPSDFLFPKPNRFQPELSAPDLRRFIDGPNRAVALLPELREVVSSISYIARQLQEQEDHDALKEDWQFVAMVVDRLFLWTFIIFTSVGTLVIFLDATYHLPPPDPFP
T1 sequence (P02708 21-457): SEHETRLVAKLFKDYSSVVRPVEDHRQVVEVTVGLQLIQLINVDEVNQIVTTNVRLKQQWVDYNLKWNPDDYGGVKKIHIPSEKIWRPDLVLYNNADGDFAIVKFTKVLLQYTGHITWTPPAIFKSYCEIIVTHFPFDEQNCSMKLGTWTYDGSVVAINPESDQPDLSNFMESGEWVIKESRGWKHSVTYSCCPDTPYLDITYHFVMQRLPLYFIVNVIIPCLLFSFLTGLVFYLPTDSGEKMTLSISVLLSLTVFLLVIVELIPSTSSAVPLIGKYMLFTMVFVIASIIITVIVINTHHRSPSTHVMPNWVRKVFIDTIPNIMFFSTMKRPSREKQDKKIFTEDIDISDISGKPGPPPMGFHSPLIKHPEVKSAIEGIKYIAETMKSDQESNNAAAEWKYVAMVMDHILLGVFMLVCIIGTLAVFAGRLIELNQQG
T1 sequence (Q07001 22-517): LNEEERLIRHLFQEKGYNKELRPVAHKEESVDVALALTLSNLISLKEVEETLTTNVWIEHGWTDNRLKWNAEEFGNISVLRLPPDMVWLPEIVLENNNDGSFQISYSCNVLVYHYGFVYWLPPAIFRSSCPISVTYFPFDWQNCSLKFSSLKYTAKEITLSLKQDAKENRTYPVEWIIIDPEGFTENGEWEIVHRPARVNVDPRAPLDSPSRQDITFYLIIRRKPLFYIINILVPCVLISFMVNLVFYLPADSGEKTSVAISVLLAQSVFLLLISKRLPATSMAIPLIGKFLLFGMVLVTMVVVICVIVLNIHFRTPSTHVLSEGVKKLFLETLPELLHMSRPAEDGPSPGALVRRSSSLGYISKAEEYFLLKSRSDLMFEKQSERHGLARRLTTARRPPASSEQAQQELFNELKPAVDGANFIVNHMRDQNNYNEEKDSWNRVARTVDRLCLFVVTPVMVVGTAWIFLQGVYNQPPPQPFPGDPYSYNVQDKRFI
T1 sequence (P07510 23-517): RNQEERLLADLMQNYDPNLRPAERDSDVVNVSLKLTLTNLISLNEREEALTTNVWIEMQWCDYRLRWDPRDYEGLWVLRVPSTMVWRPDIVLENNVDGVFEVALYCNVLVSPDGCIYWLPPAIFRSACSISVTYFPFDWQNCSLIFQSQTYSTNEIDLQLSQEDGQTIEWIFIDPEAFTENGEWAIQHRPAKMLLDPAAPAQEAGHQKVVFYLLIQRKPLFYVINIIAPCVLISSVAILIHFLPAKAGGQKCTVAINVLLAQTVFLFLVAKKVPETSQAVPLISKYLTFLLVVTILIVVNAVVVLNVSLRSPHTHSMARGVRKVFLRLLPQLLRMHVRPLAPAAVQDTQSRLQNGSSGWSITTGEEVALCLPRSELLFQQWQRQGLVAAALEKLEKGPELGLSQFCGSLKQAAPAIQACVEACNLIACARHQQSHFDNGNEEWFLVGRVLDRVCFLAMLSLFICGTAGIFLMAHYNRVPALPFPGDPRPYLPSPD

[3] = molecular target: T2, ganglionic receptor (α3β4) (Homo sapiens, UniProt P30926+P32297); assay: Receptor function ganglionic receptors (human), SH-SY5Y and IMR-32 cells; assay type: cell-based
T2 construct: endogenous in cells
T2 sequence (P32297 32-505): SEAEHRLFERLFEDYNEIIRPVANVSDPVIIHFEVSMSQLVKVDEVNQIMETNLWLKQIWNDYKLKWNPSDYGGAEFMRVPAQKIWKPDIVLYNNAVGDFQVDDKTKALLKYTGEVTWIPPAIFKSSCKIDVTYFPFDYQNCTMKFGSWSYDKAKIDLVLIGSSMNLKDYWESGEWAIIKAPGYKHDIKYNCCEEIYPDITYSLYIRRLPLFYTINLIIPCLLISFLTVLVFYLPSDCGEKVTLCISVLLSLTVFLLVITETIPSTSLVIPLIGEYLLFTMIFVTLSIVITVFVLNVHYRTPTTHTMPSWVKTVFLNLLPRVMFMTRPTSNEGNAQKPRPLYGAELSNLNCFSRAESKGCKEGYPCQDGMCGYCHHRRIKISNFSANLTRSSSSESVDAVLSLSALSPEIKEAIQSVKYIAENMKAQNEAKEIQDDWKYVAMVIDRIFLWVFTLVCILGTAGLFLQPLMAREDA
T2 sequence (P30926 22-498): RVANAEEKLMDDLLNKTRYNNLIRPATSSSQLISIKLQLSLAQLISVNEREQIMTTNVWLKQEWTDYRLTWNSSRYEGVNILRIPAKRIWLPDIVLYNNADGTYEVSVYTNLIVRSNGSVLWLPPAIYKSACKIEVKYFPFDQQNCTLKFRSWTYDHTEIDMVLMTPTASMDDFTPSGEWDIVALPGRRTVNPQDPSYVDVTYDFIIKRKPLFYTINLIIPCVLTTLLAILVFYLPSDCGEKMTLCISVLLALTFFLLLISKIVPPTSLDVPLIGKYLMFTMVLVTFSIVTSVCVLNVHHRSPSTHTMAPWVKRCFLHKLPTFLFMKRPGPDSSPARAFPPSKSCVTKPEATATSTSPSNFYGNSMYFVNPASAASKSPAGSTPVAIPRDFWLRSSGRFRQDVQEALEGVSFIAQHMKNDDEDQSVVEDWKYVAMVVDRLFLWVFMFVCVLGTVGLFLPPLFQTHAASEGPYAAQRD

[4] = system: blood pressure, heart rate, ECG; assay: Cardiovascular safety, guinea pig iv; assay type: in vivo
[5] = Cardiovascular safety, guinea pig iv; assay type: in vivo; settings: guinea pig, in vivo; intravenous
formalin test = assay: Analgesic effects, formalin test; assay type: in vivo, Mouse: CD-1; settings: po; Compound 1 0.1, 1 and 10 mg/kg, Aspirin 100 mg/kg, Morphine 30 mg/kg
[6] = system: blood pressure, heart rate, ECG; assay: Cardiovascular safety, telemetry in conscious dogs po; assay type: in vivo, Dog: Beagle
[7] = as above; assay type: in vivo, Dog: Beagle; settings: beagle, dog, in vivo; 5, 10, 20 mg/kg po; read-out: terminal half-life (TK)
pKa = assay type: physicochemical
a4b4 = a4b4 (Homo sapiens, UniProt P30926+P43681); assay: Receptor function a4b4, Ca++ flux; assay type: cell-based
Sequence of a4b4 (P43681 29-627 limits assumed): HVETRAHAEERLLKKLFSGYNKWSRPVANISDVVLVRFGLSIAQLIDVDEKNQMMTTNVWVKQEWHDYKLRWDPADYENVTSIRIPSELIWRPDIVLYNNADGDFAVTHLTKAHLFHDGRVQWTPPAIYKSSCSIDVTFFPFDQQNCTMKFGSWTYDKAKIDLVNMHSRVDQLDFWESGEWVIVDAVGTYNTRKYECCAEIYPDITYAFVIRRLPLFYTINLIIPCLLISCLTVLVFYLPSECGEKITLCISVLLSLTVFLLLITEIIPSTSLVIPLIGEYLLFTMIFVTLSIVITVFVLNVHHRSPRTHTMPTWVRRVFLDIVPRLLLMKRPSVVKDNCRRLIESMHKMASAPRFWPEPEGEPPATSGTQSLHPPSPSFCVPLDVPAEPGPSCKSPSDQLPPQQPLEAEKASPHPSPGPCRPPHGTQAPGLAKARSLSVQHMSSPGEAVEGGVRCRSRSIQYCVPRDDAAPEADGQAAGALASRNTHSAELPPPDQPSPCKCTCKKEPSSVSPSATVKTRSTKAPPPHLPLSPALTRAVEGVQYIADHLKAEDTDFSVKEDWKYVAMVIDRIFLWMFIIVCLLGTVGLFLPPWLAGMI
Sequence of a4b4 (P30926 22-498): as the sequence (P30926 22-498) above

a6/a3b2b3 = a6/a3b2b3 (Homo sapiens, UniProt P17787+P32297+Q15825); assay: Receptor function a6/a3b2b3, Ca++ flux; assay type: cell-based
Sequence of a6/a3b2b3 (Q15825+P32297 fused with the stated changes): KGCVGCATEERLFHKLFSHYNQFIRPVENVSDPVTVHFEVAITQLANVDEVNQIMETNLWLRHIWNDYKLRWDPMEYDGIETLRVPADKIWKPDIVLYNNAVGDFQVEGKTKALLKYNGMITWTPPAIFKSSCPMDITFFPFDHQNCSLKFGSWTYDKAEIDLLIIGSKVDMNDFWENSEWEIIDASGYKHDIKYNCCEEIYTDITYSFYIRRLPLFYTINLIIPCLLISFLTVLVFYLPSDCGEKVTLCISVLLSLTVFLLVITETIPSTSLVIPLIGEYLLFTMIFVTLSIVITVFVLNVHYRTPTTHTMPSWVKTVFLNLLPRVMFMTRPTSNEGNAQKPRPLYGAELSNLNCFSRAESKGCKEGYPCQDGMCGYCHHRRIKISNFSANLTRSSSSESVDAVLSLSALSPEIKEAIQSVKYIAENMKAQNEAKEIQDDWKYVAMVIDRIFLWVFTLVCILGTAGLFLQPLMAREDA
Sequence of a6/a3b2b3 (P17787 26-502): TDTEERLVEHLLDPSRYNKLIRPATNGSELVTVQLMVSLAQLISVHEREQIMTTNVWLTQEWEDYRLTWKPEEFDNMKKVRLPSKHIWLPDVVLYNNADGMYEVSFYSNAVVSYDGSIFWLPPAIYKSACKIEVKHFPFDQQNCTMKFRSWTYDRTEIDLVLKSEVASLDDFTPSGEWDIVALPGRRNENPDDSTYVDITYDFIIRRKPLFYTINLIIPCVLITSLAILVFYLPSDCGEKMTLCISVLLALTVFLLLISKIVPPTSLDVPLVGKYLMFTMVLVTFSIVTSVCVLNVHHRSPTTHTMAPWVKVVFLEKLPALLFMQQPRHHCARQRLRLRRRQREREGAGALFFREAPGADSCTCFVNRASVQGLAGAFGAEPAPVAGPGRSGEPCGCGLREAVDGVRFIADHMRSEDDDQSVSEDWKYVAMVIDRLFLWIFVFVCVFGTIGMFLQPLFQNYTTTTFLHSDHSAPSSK
Sequence of a6/a3b2b3 (Q05901 25-458 partner limits assumed): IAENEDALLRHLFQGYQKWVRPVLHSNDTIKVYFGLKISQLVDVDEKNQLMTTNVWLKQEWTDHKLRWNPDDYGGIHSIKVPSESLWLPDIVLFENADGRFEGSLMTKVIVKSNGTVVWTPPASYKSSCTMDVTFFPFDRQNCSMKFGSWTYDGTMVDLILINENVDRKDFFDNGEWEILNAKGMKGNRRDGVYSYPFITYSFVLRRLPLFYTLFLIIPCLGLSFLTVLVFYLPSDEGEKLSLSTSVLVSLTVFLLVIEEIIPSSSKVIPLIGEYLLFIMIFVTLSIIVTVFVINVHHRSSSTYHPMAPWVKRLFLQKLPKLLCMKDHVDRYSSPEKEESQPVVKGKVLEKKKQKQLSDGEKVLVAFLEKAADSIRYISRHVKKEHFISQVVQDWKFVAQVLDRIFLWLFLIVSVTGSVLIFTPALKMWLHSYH

[8] = CNS safety pharmacology, body temperature; assay type: in vivo, Rat: Sprague-Dawley; settings: po, doses up to and including 100 mg/kg
[9] = molecular target: T2, ganglionic receptor (α3β4); assay: Receptor binding ganglionic receptor, SH-SY5Y membranes
[10] = system: general behavior (Irwin profile); assay: CNS safety pharmacology, general behavior (Irwin profile); assay type: in vivo, Rat: Sprague-Dawley
[11] = molecular target: T3, α4β2 nicotinic acetylcholine receptor (Rattus norvegicus, UniProt P09483+P12390); assay: Receptor binding α4β2, inhibition of [3H]-(S)-nicotine binding, rat brain membranes
T3 construct: from tissue; host or cells: rat brain cortical membranes

[12] = system: paclitaxel-induced neuropathy, allodynia; assay: Reversing symptoms of paclitaxel-induced neuropathy; assay type: in vivo, Rat
[13] = system: muscarinic (non-selective) sites; assay: In vitro binding (off-target receptors) at 10 μM; settings: hemigalactarate salt
muscle receptor (α1β1δγ) [14] = molecular target: T1, muscle receptor (α1β1δγ); assay: Receptor function muscle receptor, TE671 cells; assay type: cell-based
[15] = [3H] DA release, Rat Striatal Synaptosomes
[16] = [3H]-DA release, rat striatal synaptosomes
[17] = Human ganglion-type (a3b4*), Ca++ Flux
[18] = 2.5, 5, 10 mg/kg po once daily for 5 days

C(=C\[C@H]1CCNC1)/c1cncnc1 [Compound 1, (R)-5-((E)-2-pyrrolidin-3-ylvinyl)pyrimidine]
exposure parameters (Cmax and AUC0-24) vs dose ([1]; Days 1 and 15 (2-week), Days 1, 29 and 91 (13-week)): increased roughly in proportion to dose
Tmax ([1]; both sexes, rat, plasma, oral 30-300 mg/kg/day, 2-week and 13-week studies): 0.5 to 2 h
exposure in females compared with males ([1]; both studies): generally higher
DA Release ratio (α4β2 (rat), a4b2*/a6b2*; [15]): 0.55 DA
EC50 (α4β2 (rat), a4b2*/a6b2*; [15]): 3.9 µM and 3.93 µM
Emax (α4β2 (rat), a4b2*/a6b2*; [15]): 110 and 114
EC50 (α4β2 (rat), a4b2*/a6b2*; [16]): 3.93 µM
Emax (α4β2 (rat), a4b2*/a6b2*; [16]): 114 % of nicotine
agonist type at the α4β2 subtype (α4β2 (rat), a4b2*/a6b2*; [16]): nM. Compound 1 is a full agonist at the α4β2
Ki (muscle receptor (α1β1δγ) [2]): 36 µM
EC50 [3, 17]: 13 µM
Emax [3, 17]: 150%
EC50 ([3]; IMR-32 cells): 22 µM
EC50 ([3]; Rb+ Flux, IMR cells): 22 µM
Emax ([3]; Rb+ Flux, IMR cells): 79%
EC50 ([3]; Rb+ Flux, SHSY5Y cells): 18 µM
EC50 ([3]; SH-SY5Y cells): 18 µM
Emax vs. nicotine ([3]; SH-SY5Y cells): 60%
Emax ([3]; SH-SY5Y, Rb+ Flux, SHSY5Y cells): 60%
agonist type ([3]; α3β4 nicotine receptor subtype): full agonist
effects on QTc ([4]; 1 mg/kg iv): doses up to 0.3 mg/kg, mild and reversible
lethality ([4]; 10 mg/kg iv): 10 mg/kg was lethal.
peak increase in heart rate ([4]; 1, 3, and 10 mg/kg iv): rate was 41 beats per minute.
peak increase in systolic blood pressure ([4]; 1, 3, and 10 mg/kg iv): 58 mmHg; and the peak increase in heart
time in which effects resolved ([4]; 1 and 3 mg/kg iv): 3 min
effects on QTc/ECG ([4]; 3 and 10 mg/kg iv): effects on QTc at 1 mg/kg, and severe
effects on ECGs ([4]; doses up to 0.3 mg/kg iv): Compound 1 caused no effects on ECGs at
MTD [5]: 0.3 mg/kg
analgesic effects after formalin injection, Day 1 (formalin test): mg/kg) and Aspirin at 100 mg/kg failed
other findings ([6]; 5 mg/kg po): 5 mg/kg produced no other findings.
ventricular extrasystole 10 to 25 minutes after dosing ([6]; 10 mg/kg po): 10 mg/kg was associated with 1
emesis ([6]; 20 mg/kg po): emesis were noted at 20 mg/kg.
lengthening of the QT interval ([6]; 20 mg/kg po): slight lengthening; also recorded: after dosing. In addition, slight
ventricular extrasystole 10 to 25 minutes after dosing ([6]; 20 mg/kg po): 20 mg/kg was associated with 1
PQ interval [6, 18]: tachycardia, and decreased PQ interval.
QRS duration, QT interval, body temperature [6, 18]: There were no changes in the QRS
accumulation after repeat dosing (TK) [6, 18]: sexes. No accumulation was observed after
tachycardia [6, 18]: pressure (mainly diastolic), marked
dose proportionality of Cmax and AUC (TK) ([6]; 2.5, 5, 10 mg/kg po, either sampling day): TK: There were no proportional increases
increase in blood pressure and bursts of sinus tachycardia ([6]; 5, 10, 20 mg/kg po, all dogs): Compound 1 produced a transient and slight
emesis shortly after dosing ([6]; all doses): exhibited emesis
systolic and diastolic blood pressure and heart rate ([6]; oral doses up to 10 mg/kg): non-dose dependent increase
half-life [7]: 1.3 to 4.2 h
pKa (pKa; read-out: pKa(1)): 1.73
pKa (pKa; read-out: pKa(2)): 10.3
EC50 (a4b4): 4.3 µM
Emax (a4b4): 98%
(Imax) (a6/a3b2b3; Human a6/a3b2b3): 49
IC50 (a6/a3b2b3; Human a6/a3b2b3): 2.8 µM
DC50 (a6/a3b2b3; Human a6/a3b2b3, Ca++ Flux): 0.031 µM
Dmax (a6/a3b2b3; Human a6/a3b2b3, Ca++ Flux): 99%
EC50 (a6/a3b2b3; Human a6/a3b2b3, Ca++ Flux): 0.47 µM
Emax (a6/a3b2b3; Human a6/a3b2b3, Ca++ Flux): 92%
effect on body temperature [8]: no noteworthy changes; also recorded: Compound 1 had no effect on body
Ki ([9]; Human ganglion-type (a3b4*), assay and tissue type not given): 8.8 µM
Ki ([9]; [3H]-epibatidine, SH-SY5Y membranes): 0.6 µM and 0.62 µM
NOEL, general behavior (Irwin profile) ([10]; 15, 50, 150 mg/kg po): greater than 150 mg/kg.
effect on general behavior (Irwin profile) ([10]; po, doses up to and including 100 mg/kg): no noteworthy changes; also recorded: Compound 1 had no effect on general
Ki ([11]; Rat a4b2, assay and tissue type not given): 0.034 µM
Ki ([11]; [3H]-S-nicotine, rat brain cortical membranes): 0.027 µM
allodynia vs vehicle-treated group ([12]; 3 weeks post-dosing, only the 0.1 mg/kg dose): significantly different from vehicle.
allodynia vs vehicle-treated group ([12]; once daily po 0.01, 0.1, 1.0 mg/kg, all doses, 4 weeks post-paclitaxel dosing): at all doses significantly reduced
reversing tactile allodynia ([12]; paclitaxel-induced, 0.01-1 mg/kg p.o.): efficacious
binding affinity [13]: sites (51%).
EC50 (muscle receptor (α1β1δγ) [14]): 15 µM
Emax (muscle receptor (α1β1δγ) [14]; TE-671, Human muscle-type, Ca++ Flux): 42%
Emax (muscle receptor (α1β1δγ) [14]; TE-671, Human muscle-type, Rb+ Flux, single point): 12%
Emax (muscle receptor (α1β1δγ) [14]; TE-671, TE671 cells): 42%
